Test results from ChEMBL document CHEMBL1201862, “PubChem BioAssay data set” (2004).
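In this assay, cells in 96-well plates receive the compound at five concentrations for 48 hours. Endpoints are linearly interpolated between the surrounding concentrations. The concentration for 50% growth inhibition is given as GI50.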 The source made the active and inactive calls. Cut-off read from the data, not from the text of the source: active = GI50 up to about 1.1 µM and inactive = higher.

Assays:
Assay in all cases: inhibition of tumour cell growth, NCI panel, 48 h
DLD-1 = test system: DLD-1
DMS-114 = test system: DMS-114
HOP-18 = test system: HOP-18
LXFL 529 = test system: LXFL 529
M19-MEL = test system: M19-MEL
RXF 631 = test system: RXF 631
SNB-78 = test system: SNB-78
XF498 = test system: XF498

Measured: GI50

C/C=C(/CCC1NCCC2c3ccccc3NC12)[Si](C)(C)C (centres undefined)
inactive: DLD-1 5.16 µM | DMS-114 4.53 µM | HOP-18 13.7 µM | LXFL 529 3.65 µM | M19-MEL 12 µM | RXF 631 10.4 µM | SNB-78 11.6 µM | XF498 3.15 µM

COc1ccc(O)cc1C=O
inactive: DLD-1 > 100 µM | DMS-114 32.8 µM | HOP-18 > 100 µM | LXFL 529 77.1 µM | M19-MEL 77.1 µM | RXF 631 > 100 µM | SNB-78 > 100 µM | XF498 99.1 µM

NS(=O)(=O)c1ccc(NC(=O)c2cccn3c(=O)c4ccccc4nc23)cc1
inactive: DLD-1 > 100 µM | DMS-114 > 100 µM | HOP-18 > 100 µM | LXFL 529 > 100 µM | M19-MEL > 100 µM | RXF 631 > 100 µM | SNB-78 > 100 µM | XF498 > 100 µM

CN(C)c1nnnn1-c1c(N)n(C)c(=O)n(C)c1=O
inactive: DLD-1 > 100 µM | DMS-114 > 100 µM | HOP-18 > 100 µM | LXFL 529 > 100 µM | M19-MEL > 100 µM | RXF 631 > 100 µM | SNB-78 > 100 µM | XF498 > 100 µM

COc1cc(Nc2cnc3ccc(N)cc3n2)cc(OC)c1OC
inactive: DMS-114 79.3 µM | HOP-18 39.4 µM | LXFL 529 56.5 µM | M19-MEL > 84.1 µM | RXF 631 > 100 µM | SNB-78 > 100 µM | XF498 11 µM
